Where two headings read alike, the source gives them in different places.
What was measured:
Format in all cases: physicochemical
[1] = Amyloid-forming properties of the peptide screen (overall call from Th-T, pFTAA, TEM)
Source text: In the interest of improving the current description of the familiar amyloidogenic protein dataset, we selected and synthesised a subset of 96 peptides corresponding to strong aggregation prone regions identified in these proteins by Cordax. Apart of prediction strength, the peptide screen was also selectively constructed to ensure broad sequence variability and a wide distribution on the proteins of the dataset, with a preference for longer entries defined by inadequate previous characterisation. Peptide sequences were cross-checked and filtered to exclude overlapping sequences with previously identified amyloid regions and WALTZ-DB (see Table 2). The remaining selection of 96 peptides were synthesized using standard solid phase synthesis and their amyloid-forming properties were initially examined using Thioflavin-T (Th-T) or pFTAA binding, following rotating incubation for 5 days at room temperature. The binding assays are complementary, as Th-T and pFTAA are opposingly charged molecules, which increases the amyloid identification rate by overcoming cases of dye-specific failure to bind to amyloid surfaces based on charge repulsion. Under these conditions, 66 peptides successfully bind the specific dyes (FIGS. 3a & 3b) by forming fibrils with typical amyloid morphologies and properties that were verified using transmission electron microscopy (FIG. 3c) and Congo red staining for selected cases (FIG. 3d). As these dyes are known to yield false negatives, in particular for short peptides, all dye-negative peptides were further investigated using electron microscopy. During this scan, we recovered 19 additional sequences that were capable of forming sparse amyloid-like fibrils with shorter lengths (see FIG. 8). […]
(§1) Peptides derived from the Cordax validation set were synthesized using an Intavis Multipep RSi solid phase peptide synthesis robot. Peptide purity (>90%) was evaluated using RP-HPLC purification protocols and peptides were stored as ether precipitates (−20° C.). Peptide stocks were initially treated with 1,1,1,3,3,3-hexafluoro-isopropanol (HFIP) (Merck), then dissolved in traces of dimethyl sulfoxide (DMSO) (Merck) (<5%), filtered through 0.2 μm filters and finally in milli-Q water to reach a final concentration of 200 μM or up to 1 mM for dye-negative peptides. Dithiothreitol (DTT) (1 mM) was included in solutions of peptides spanning cysteine or methionine residues. All peptides were incubated at room temperature for a period of 5 days on a rotating wheel.
(§2) Amyloid aggregation was monitored using fluorescent spectroscopy binding assays. Th-T (Sigma) or pFTAA (Ebba Biotech AB) was added in half-area black 96-well microplates (Corning, USA) at a final concentration of 25 μM and 0.5 μM, respectively. Fluorescence intensity was measured in replicates (n=6) using a PolarStar Optima and a FluoStar Omega plate reader (BMG Labtech, Germany), equipped with an excitation filter at 440 nm and emission filters at 480 nm and 510 nm, respectively.
(§3) Peptide solutions were incubated for 5 days at room temperature in order to form mature amyloid-like fibrils. Suspensions (5 μL) of each peptide solution were added on 400-mesh carbon-coated copper grids (Agar Scientific Ltd., England), following a glow-discharging step of 30 s to improve sample adsorption. Grids were washed with milli-Q water and negatively stained using uranyl acetate (2% w/v in milli-Q water). Grids were examined with a JEM-1400 120 kV transmission electron microscope (JEOL, Japan), operated at […].

[2] = pFTAA binding assay of synthetic peptides; conditions: 200 μM peptide, rotation 5 days, room temperature; pFTAA 0.5 μM
Source text: (§4) In the interest of improving the current description of the familiar amyloidogenic protein dataset, we selected and synthesised a subset of 96 peptides corresponding to strong aggregation prone regions identified in these proteins by Cordax. Apart of prediction strength, the peptide screen was also selectively constructed to ensure broad sequence variability and a wide distribution on the proteins of the dataset, with a preference for longer entries defined by inadequate previous characterisation. Peptide sequences were cross-checked and filtered to exclude overlapping sequences with previously identified amyloid regions and WALTZ-DB (see Table 2). The remaining selection of 96 peptides were synthesized using standard solid phase synthesis and their amyloid-forming properties were initially examined using Thioflavin-T (Th-T) or pFTAA binding, following rotating incubation for 5 days at room temperature. The binding assays are complementary, as Th-T and pFTAA are opposingly charged molecules, which increases the amyloid identification rate by overcoming cases of dye-specific failure to bind to amyloid surfaces based on charge repulsion. Under these conditions, 66 peptides successfully bind the specific dyes (FIGS. 3a & 3b) by forming fibrils with typical amyloid morphologies and properties that were verified using transmission electron microscopy (FIG. 3c) and Congo red staining for selected cases (FIG. 3d). As these dyes are known to yield false negatives, in particular for short peptides, all dye-negative peptides were further investigated using electron microscopy. During this scan, we recovered 19 additional sequences that were capable of forming sparse amyloid-like fibrils with shorter lengths (see FIG. 8).
as §1, §2

[3] = Thioflavin-T binding assay of synthetic peptides; conditions: 200 μM peptide, rotation 5 days, room temperature; Th-T 25 μM
Source text: as §4, §1, §2

[4] = Transmission electron microscopy of peptide fibrils
Source text: as §4, §3

[5] = amyloid-like fibrils after 5 days at room temperature

| Substance | Amyloid ([1]; overall amyloid-forming call) | pFTAA Binding [2] | Th-T Binding [3] | TEM [4, 5] | Amyloid [1] | TEM [4] |
| --- | --- | --- | --- | --- | --- | --- |
| AFFLFC | ● | ● | ● | – | – | – |
| MSVSLV | ● | ● | ● | – | – | – |
| GDVAFI | ● | ● | ● | – | – | – |
| SVDYEV | ● | ● | – | – | – | – |
| LLFKDS | ● | – | – | ● | – | – |
| FSFTIA | ● | ● | ● | – | – | – |
| AAYLWV | ● | ● | ● | ● | – | – |
| FEYVQL | ● | ● | ● | – | – | – |
| IQIHHY | ● | – | – | ● | – | – |
| FVIEEV | ● | ● | ● | ● | – | – |
| MDKVER | ● | – | – | ● | – | – |
| VVVNKM | ● | ● | – | – | – | – |
| VYVDVL | ● | ● | ● | ● | – | – |
| MIIYKG | ● | ● | – | – | – | – |
| SYVLQT | ● | ● | ● | – | – | – |
| SQFIKL | ● | – | – | ● | – | – |
| LVMELD | ● | ● | ● | – | – | – |
| YFHARG | ● | – | – | ● | – | – |
| IQVYSR | ● | ● | ● | ● | – | – |
| TLFTMD | ● | – | – | ● | – | – |
| IGYNIK | ● | – | – | ● | – | – |

| Substance | Amyloid ([1]; overall amyloid-forming call) | pFTAA Binding [2] | Th-T Binding [3] | TEM [4, 5] | Amyloid [1] | TEM [4] |
| --- | --- | --- | --- | --- | --- | --- |
| GYLTIR | ● | – | – | ● | – | – |
| FLGYFK | ● | – | – | ● | – | – |
| VDMAMC | ● | ● | ● | – | – | – |
| LNSVFK | ● | – | – | ● | – | – |
| NDAFVL | ● | ● | ● | ● | – | – |
| IIYNWQ | ● | ● | ● | ● | – | – |
| FYAVRL | ● | – | – | ● | – | – |
| STVISY | ● | ● | ● | ● | – | – |
| LSIWES | ● | ● | ● | – | – | – |
| HYYAVA | ● | ● | – | – | – | – |
| LNLKLL | ● | ● | – | – | – | – |
| VNFSEF | ● | ● | ● | ● | – | – |
| QIIEIE | ● | ● | ● | – | – | – |
| EDCFIL | ● | ● | ● | – | – | – |
| LIFMGH | ● | ● | ● | – | – | – |
| EVYKWT | ● | ● | – | – | – | – |
| AEIEIE | ● | ● | ● | ● | – | – |
| INAWLF | ● | ● | ● | – | – | – |
| MVVEHP | ● | ● | – | – | – | – |
| GWFLGW | ● | – | ● | – | – | – |
| VNIELL | ● | ● | ● | – | – | – |

| Substance | Amyloid ([1]; overall amyloid-forming call) | pFTAA Binding [2] | Th-T Binding [3] | TEM [4, 5] | Amyloid [1] | TEM [4] |
| --- | --- | --- | --- | --- | --- | --- |
| YFTAIQ | ● | ● | ● | – | – | – |
| TDVVFM | ● | ● | ● | – | – | – |
| LQVDLG | ● | ● | ● | – | – | – |
| INFEFS | ● | ● | ● | – | – | – |
| TIFLDF | ● | ● | – | – | – | – |
| VHIVKL | ● | ● | – | ● | – | – |
| NLYEKT | ● | ● | – | – | – | – |
| MFSEFD | ● | ● | ● | – | – | – |
| FKVAIV | ● | ● | – | – | – | – |
| ASLTIL | ● | ● | ● | ● | – | – |
| IGVVGW | ● | ● | ● | – | – | – |
| IFTVQL | ● | ● | ● | ● | – | – |
| AYVILK | ● | ● | – | – | – | – |
| GWNIPM | ● | ● | – | – | – | – |
| YQLVLQ | ● | ● | ● | ● | – | – |
| GYTLFS | ● | – | – | ● | – | – |
| QVYYRP | – | – | – | – | ● | ● |
| MDVFMK | ● | ● | ● | – | – | – |
| MLHKEF | ● | – | ● | – | – | – |
| YIILYN | ● | ● | ● | ● | – | – |
| LIVSIL | ● | ● | ● | – | – | – |

| Substance | Amyloid ([1]; overall amyloid-forming call) | pFTAA Binding [2] | Th-T Binding [3] | TEM [4, 5] | Amyloid [1] | TEM [4] |
| --- | --- | --- | --- | --- | --- | --- |
| GVIHYI | ● | – | – | ● | – | – |
| QVFVWV | ● | ● | ● | ● | – | – |
| ILLLFE | ● | ● | ● | ● | – | – |
| IGINIK | ● | – | – | ● | – | – |
| VYTVFA | ● | ● | ● | – | – | – |
| DLVVFE | ● | ● | ● | – | – | – |
| LCSTFC | ● | ● | ● | – | – | – |
| DCFEYV | ● | ● | ● | – | – | – |
| CEFLRK | ● | ● | – | – | – | – |
| MYVSEM | ● | ● | ● | – | – | – |
| SNFLRA | ● | – | – | ● | – | – |
| LLVYNK | ● | – | – | ● | – | – |
| LYHGQT | ● | – | – | ● | – | – |
| LLDNWD | ● | ● | – | – | – | – |
| TKVIPY | ● | ● | – | – | – | – |
| SEFSKK | ● | ● | – | – | – | – |
| MELIVS | ● | ● | ● | – | – | – |
| LHCLRR | ● | ● | – | – | – | – |
| LYHLVT | ● | – | – | ● | – | – |
| YVAGIT | ● | ● | ● | – | – | – |

From patent publication US20230245725A1, “Means and Methods for the Prediction of Amyloid Core Sequences” (VIB VZW, priority 2020, published 2023)
